Reference: PubChem BioAssay AID330 (DTP/NCI, 2004)
Several values for one entry are separate records, joined by “and”; a condition that tells them apart may be missing. Identical values can stand only once. Toxic doses and inconclusive results are not listed.

System: P388 leukemia ip, CD2F1 mice, survival T/C
Assay: NCI In Vivo Anticancer Drug Screen. Data for tumor model P388 Leukemia (intraperitoneal) in CD2F1 (CDF1) mice
Settings: endpoint: median survival time, higher = longer survival
Procedure, shortened: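 Mice carrying the transplanted tumor received test compound or vehicle. Survival was recorded in each group, and the value is the treated-group measurement divided by that of the vehicle-treated control group.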

[1] = dose: 60.0 mg/kg/injection, schedule: Q01DX005 (ip), vehicle: saline with Tween-80
[2] = dose: 120.0 mg/kg/injection, schedule: Q01DX005 (ip), vehicle: saline with Tween-80
[3] = dose: 240.0 mg/kg/injection, schedule: Q01DX005 (ip), vehicle: saline with Tween-80
[4] = dose: 50.0 mg/kg/injection, schedule: Q01DX005 (ip), vehicle: Klucel (hydroxypropylcellulose) (HPC)
[5] = dose: 100.0 mg/kg/injection, schedule: Q01DX005 (ip), vehicle: Klucel (hydroxypropylcellulose) (HPC)
[6] = dose: 50.0 mg/kg/injection, schedule: Q01DX009 (ip), vehicle: saline with Tween-80
[7] = dose: 100.0 mg/kg/injection, schedule: Q01DX009 (ip), vehicle: saline with Tween-80
[8] = dose: 50.0 mg/kg/injection, schedule: Q01DX005 (ip), vehicle: saline
[9] = dose: 100.0 mg/kg/injection, schedule: Q01DX005 (ip), vehicle: saline
[10] = dose: 200.0 mg/kg/injection, schedule: Q01DX005 (ip), vehicle: saline
[11] = dose: 50.0 mg/kg/injection, schedule: Q01DX005 (ip), vehicle: saline with Tween-80
[12] = dose: 100.0 mg/kg/injection, schedule: Q01DX005 (ip), vehicle: saline with Tween-80

In the case of N#CC(=S)N(C(=O)c1ccc(Cl)cc1)c1ccccc1Cl, the T/C (dose: 60.0 mg/kg/injection, schedule: Q01DX005 (ip), vehicle: Klucel + Tween-80) is reported as 103 % of control and the T/C (dose: 120.0 mg/kg/injection, schedule: Q01DX005 (ip), vehicle: Klucel + Tween-80) is reported as 112 % of control.
For C=C(OC)C(Nc1cc(OC)c(OC)cc1C(=O)OC1CC(O[C@@H]2C(=O)C(NC(=O)OC)=C3/C(=C\CSSSC)[C@]2(O)C#C/C=C\C#C[C@@H]3OC2OC(C)C(NOC3CC(O)C(SC)C(C)O3)C(O)C2OC2CC(OC)C(NCCC)CO2)OC(C)C1O)OC (some centres not stated), the T/C (dose: 1.28 micrograms/kg/injection, schedule: Q01DX005 (ip), vehicle: alcohol) was 163 % of control, the T/C (dose: 2.5 micrograms/kg/injection, schedule: Q01DX005 (ip), vehicle: saline + alcohol) was 88 % of control and the T/C (dose: 2.5 nanograms/kg/injection, schedule: Q01DX005 (ip), vehicle: saline + alcohol) was 120 % of control. For the same compound, the T/C (dose: 2.56 micrograms/kg/injection, schedule: Q01DX005 (ip), vehicle: alcohol) was 155 % of control and 177 % of control, the T/C (dose: 5.0 nanograms/kg/injection, schedule: Q01DX005 (ip), vehicle: saline + alcohol) was 118 % of control and the T/C (dose: 5.12 micrograms/kg/injection, schedule: Q01DX005 (ip), vehicle: alcohol) was 115 % of control. The T/C (dose: 10.0 nanograms/kg/injection, schedule: Q01DX005 (ip), vehicle: saline + alcohol) was 123 % of control, the T/C (dose: 320.0 nanograms/kg/injection, schedule: Q01DX005 (ip), vehicle: saline + alcohol) was 164 % of control and the T/C (dose: 640.0 nanograms/kg/injection, schedule: Q01DX005 (ip), vehicle: saline + alcohol) was 174 % of control. The T/C (dose: 1280.0 nanograms/kg/injection, schedule: Q01DX005 (ip), vehicle: saline + alcohol) was 95 % of control.
CCOc1ccccc1NC(=O)NCC(=O)NNC(=O)Nc1ccc(Cl)c([N+](=O)[O-])c1 was tested, and the T/C [1] was 93 % of control, the T/C [2] was 98 % of control and the T/C [3] was 92 % of control.
With CC(=NCCCCN=C(C)c1cc(C)cc(Br)c1O)c1cc(C)cc(Br)c1O the T/C (dose: 25.0 mg/kg/injection, schedule: Q01DX005 (ip), vehicle: Klucel (hydroxypropylcellulose) (HPC)) was 100 % of control, the T/C [4] was 96 % of control and the T/C [5] was 95 % of control. The T/C (dose: 200.0 mg/kg/injection, schedule: Q01DX005 (ip), vehicle: Klucel (hydroxypropylcellulose) (HPC)) was 98 % of control.
In the case of Cn1ccnc1[Si](C)(C)C, the T/C [1] is reported as 101 % of control, the T/C [2] is reported as 107 % of control and the T/C [3] is reported as 99 % of control.
In the case of CCC(c1ccc(OC)cc1)C(NCC(=O)N/N=C/c1ccccc1[N+](=O)[O-])c1ccc(OC)cc1 (configuration not stated), the T/C (dose: 3.12 mg/kg/injection, schedule: Q01DX001 (ip), vehicle: saline with Tween-80) is reported as 94 % of control, the T/C (dose: 6.25 mg/kg/injection, schedule: Q01DX001 (ip), vehicle: saline with Tween-80) is reported as 88 % of control and the T/C (dose: 12.5 mg/kg/injection, schedule: Q01DX001 (ip), vehicle: saline with Tween-80) is reported as 88 % of control. For the same compound, the T/C (dose: 400.0 mg/kg/injection, schedule: Q01DX001 (ip), vehicle: saline with Tween-80) was 96 % of control.
In the case of COC(=O)Nc1nc2ccc(C(=O)c3ccc(F)cc3)cc2[nH]1, the T/C (dose: 12.5 mg/kg/injection, schedule: Q01DX009 (ip), vehicle: saline with Tween-80) is reported as 120 % of control, the T/C [6] is reported as 180 % of control and the T/C [7] is reported as 217 % of control and 236 % of control.
CCN(CC)CCN1C(=O)CCC1=O was tested, and the T/C [8] was 100 % of control, the T/C [9] was 109 % of control and the T/C [10] was 104 % of control.
For CCCCCC(=O)NCC(=O)OC, the T/C [8] was 100 % of control, the T/C [9] was 101 % of control and the T/C [10] was 100 % of control.
For Cc1ccc(-n2c(=O)nc([O-])[n+]3ccccc23)cc1, the T/C (dose: 60.0 mg/kg/injection, schedule: Q01DX005 (ip), vehicle: Klucel (hydroxypropylcellulose) (HPC)) was 99 % of control, the T/C (dose: 120.0 mg/kg/injection, schedule: Q01DX005 (ip), vehicle: Klucel (hydroxypropylcellulose) (HPC)) was 98 % of control and the T/C (dose: 240.0 mg/kg/injection, schedule: Q01DX005 (ip), vehicle: Klucel (hydroxypropylcellulose) (HPC)) was 96 % of control.
For CCOc1cc(=O)cc2n(-c3cc(OCC)c(OC(C)=O)c(OCC)c3)c3ccccc3nc1-2, the T/C (dose: 50.0 mg/kg/injection, schedule: Q01DX009 (ip), vehicle: suspension in saline) was 99 % of control, the T/C (dose: 100.0 mg/kg/injection, schedule: Q01DX009 (ip), vehicle: suspension in saline) was 100 % of control and the T/C (dose: 200.0 mg/kg/injection, schedule: Q01DX009 (ip), vehicle: suspension in saline) was 99 % of control.
For CSc1cccc(NC(=O)OC2CCCCCCCCCCC2)c1, the T/C [6] was 89 % of control, the T/C [7] was 89 % of control and the T/C (dose: 200.0 mg/kg/injection, schedule: Q01DX009 (ip), vehicle: saline with Tween-80) was 92 % of control.
For CC1CCC(=O)CN1Cc1ccccc1 (configuration not stated), the T/C [11] was 109 % of control and the T/C [12] was 101 % of control.
In the case of C=C1CC2(CC3CC2C2CCCC32)OC1=O (configuration not stated), the T/C (dose: 100.0 mg/kg/injection, schedule: Q04DX002 (ip), vehicle: saline) is reported as 100 % of control, the T/C (dose: 200.0 mg/kg/injection, schedule: Q04DX002 (ip), vehicle: saline) is reported as 94 % of control and the T/C (dose: 400.0 mg/kg/injection, schedule: Q04DX002 (ip), vehicle: saline) is reported as 98 % of control.
CCCSCCNC(=O)C1(O)C(O)C2(CC)C=CCN3CCC4(c5cc(C6(OC(C)=O)CC7C=C(CC)CN(CCc8c6[nH]c6ccccc86)C7)c(OC)cc5N(C)C14)C32 (configuration not stated) was tested, and the T/C (dose: 0.5 mg/kg/injection, schedule: Q01DX001 (ip), vehicle: water) was 107 % of control, the T/C (dose: 2.0 mg/kg/injection, schedule: Q01DX001 (ip), vehicle: water) was 111 % of control and the T/C (dose: 4.0 mg/kg/injection, schedule: Q01DX001 (ip), vehicle: water) was 159 % of control. The T/C (dose: 8.0 mg/kg/injection, schedule: Q01DX001 (ip), vehicle: water) was 161 % of control and the T/C (dose: 16.0 mg/kg/injection, schedule: Q01DX001 (ip), vehicle: water) was 158 % of control and 198 % of control.
CCC1C2Cc3ccc(O)cc3C1(CC)CCN2C (configuration not stated) was tested, and the T/C (dose: 6.25 mg/kg/injection, schedule: Q01DX005 (ip), vehicle: saline with Tween-80) was 99 % of control, the T/C (dose: 12.5 mg/kg/injection, schedule: Q01DX005 (ip), vehicle: saline with Tween-80) was 99 % of control and the T/C (dose: 25.0 mg/kg/injection, schedule: Q01DX005 (ip), vehicle: saline with Tween-80) was 95 % of control. For the same compound, the T/C [4] was 103 % of control, the T/C [11] was 100 % of control and the T/C [5] was 106 % of control.
In the case of CCCCCCCCCCCCCCCCCC(=O)CC(=O)C(F)(F)F, the T/C (dose: 50.0 mg/kg/injection, schedule: Q01DX009 (ip), vehicle: saline) is reported as 100 % of control, the T/C (dose: 100.0 mg/kg/injection, schedule: Q01DX009 (ip), vehicle: saline) is reported as 99 % of control and the T/C (dose: 200.0 mg/kg/injection, schedule: Q01DX009 (ip), vehicle: saline) is reported as 99 % of control.
For CCOC(=O)COc1cc2c(cc1C(C)c1ccc(OCc3ccccc3)c(OC)c1)OCO2 (configuration not stated), the T/C [4] was 87 % of control and the T/C [5] was 90 % of control.
In the case of CCCCCCCCCCCC(=O)NCC(=O)NC1C(CO)OC(Nc2ncnc3nc[nH]c23)C(O)C1O (configuration not stated), the T/C (dose: 0.06 mg/kg/injection, schedule: Q01DX009 (ip), vehicle: water) is reported as 93 % of control, the T/C (dose: 0.12 mg/kg/injection, schedule: Q01DX009 (ip), vehicle: water) is reported as 101 % of control and the T/C (dose: 0.13 mg/kg/injection, schedule: Q01DX009 (ip), vehicle: other) is reported as 103 % of control. For the same compound, the T/C (dose: 0.25 mg/kg/injection, schedule: Q01DX009 (ip), vehicle: other) was 113 % of control, the T/C (dose: 0.25 mg/kg/injection, schedule: Q01DX009 (ip), vehicle: water) was 99 % of control and the T/C (dose: 0.5 mg/kg/injection, schedule: Q01DX009 (ip), vehicle: other) was 121 % of control. For the same compound, the T/C (dose: 0.5 mg/kg/injection, schedule: Q01DX009 (ip), vehicle: water) was 99 % of control, the T/C (dose: 1.0 mg/kg/injection, schedule: Q01DX009 (ip), vehicle: water) was 105 % of control and the T/C (dose: 2.0 mg/kg/injection, schedule: Q01DX009 (ip), vehicle: other) was 100 % of control and 86 % of control. For the same compound, the T/C (dose: 2.0 mg/kg/injection, schedule: Q01DX009 (ip), vehicle: water) was 124 % of control.
Cc1cccc(/C=N/NC(N)=S)n1 was tested, and the T/C (dose: 15.0 mg/kg/injection, schedule: Q04DX002 (ip), vehicle: saline with Tween-80) was 105 % of control, the T/C (dose: 30.0 mg/kg/injection, schedule: Q04DX002 (ip), vehicle: saline with Tween-80) was 106 % of control and the T/C (dose: 60.0 mg/kg/injection, schedule: Q04DX002 (ip), vehicle: saline with Tween-80) was 106 % of control.
In the case of O=C1OC(=O)C2C3c4ccccc4C(c4ccccc43)C12 (configuration not stated), the T/C [11] is reported as 115 % of control and 117 % of control, the T/C [12] is reported as 110 % of control and 121 % of control and the T/C (dose: 200.0 mg/kg/injection, schedule: Q01DX005 (ip), vehicle: saline with Tween-80) is reported as 120 % of control and 122 % of control. The T/C (dose: 400.0 mg/kg/injection, schedule: Q01DX005 (ip), vehicle: saline with Tween-80) was 121 % of control.
